Data reported in US9029409B2, “Isoxazolines as therapeutic agents” (AbbVie Inc., priority 2011, dated 2015).

Biological target: T1, recombinant human MMP13 catalytic domain (CD) (Homo sapiens, UniProt P45452)
T1 construct: catalytic domain (CD) construct encompassing residues 20-274 (SWISS-PROT P45452); made in house
Experiment: MMP-13 catalytic domain FRET enzyme assay
Type: biochemical
Settings: recombinant human MMP-13 catalytic domain
Summary of the method: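 Human MMP-13 catalytic domain (res 20-274, E. coli-expressed), 0.4 nM, cleaving FRET peptide (0.25 μM) in Tris pH 7.5/CaCl2/NaCl/Brij 35, 5% DMSO, 60 min RT; EDTA-quenched, fluorescence 485/535 nm. IC50 from sigmoidal fit of % inhibition. Some compounds also run on APMA-activated full-length MMP13 (2 nM).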

| IC50 [nM] | Compound |
| --- | --- |
| < 10 | Cc1nc(C(=O)NCc2ccc(F)c(C)c2)cc(C2=NOC(C3CCN(S(C)(=O)=O)CC3)C2)n1 (centres unmarked) |
| 10 to 100 | Cc1nc(C(=O)NCc2ccc3c(c2)OCCO3)cc(C2=NO[C@H]([C@H]3CO[C@H](CO)CO3)C2)n1 |
| 10 to 100 | CC(=O)N1CCC(C2CC(c3cc(C(=O)NCc4ccc(F)c(C)c4)nc(C)n3)=NO2)CC1 (centres unmarked) |
| 10 to 100 | COCC(=O)N1CCC(C2CC(c3cc(C(=O)NCc4ccc(F)c(OC)c4)nc(C)n3)=NO2)CC1 (centres unmarked) |
| > 1000 | COc1cc([C@H](C)NC(=O)c2cc(C3=NOC(c4ccccc4)C3)nc(C)n2)ccc1F (some centres unmarked) |
| 100 to 1000 | COc1ccc(CNC(=O)c2cc(C3=NOC(C)(c4ccc(Cl)cc4)C3)ccn2)cc1 (centres unmarked) |
| 10 to 100 | COc1ccc(CNC(=O)c2cc(C3=NOC(c4ccc(C(=O)O)cc4)C3)ccn2)cc1 (centres unmarked) |
| 10 to 100 | Cc1nc(C(=O)NCc2ccc(=O)n(C)c2)cc(C2=NO[C@H]([C@H]3CO[C@H](CO)CO3)C2)n1 |
| 10 to 100 | COC[C@@H]1CO[C@@H]([C@@H]2CC(c3cc(C(=O)NCc4ccc(F)c(OC)c4)nc(C)n3)=NO2)CO1 |
| 10 to 100 | COc1cc(CNC(=O)c2cc(C3=NOC(c4ccc(S(C)(=O)=O)nn4)C3)nc(C)n2)ccc1F (centres unmarked) |
| 10 to 100 | COc1cc(CNC(=O)c2cc(C3=NOC(c4ccnc(C(C)(C)O)c4)C3)nc(C)n2)ccc1F (centres unmarked) |
| > 1000 | Cc1nc(C(=O)NCc2ccc(F)c(F)c2)cc(C2=NO[C@H]([C@H]3CO[C@H](CO)CO3)C2)n1 [drawing 953] |
| < 10 | Cc1nc(C(=O)NCc2ccc3c(c2)NC(=O)CO3)cc(C2=NOC(c3ccc(=O)n(C4CC4)c3)C2)n1 (centres unmarked) |
| 10 to 100 | COc1cc(CNC(=O)c2cc(C3=NO[C@@H]([C@H]4CC[C@H](NC(=O)[C@H](C)O)CC4)C3)nc(C)n2)ccc1F |
| < 10 | Cc1nc(C(=O)NCc2ccc3c(c2)NC(=O)CO3)cc(C2=NOC(c3ccc(=O)n(C)c3)C2)n1 (centres unmarked) |
| 10 to 100 | COc1cc(CNC(=O)c2cc(C3=NO[C@H]([C@H]4CO[C@H](CS(C)(=O)=O)CO4)C3)nc(C)n2)ccc1F |
| > 1000 | Cc1cccc(CNC(=O)c2cc(C3=NO[C@H]([C@H]4CO[C@H](CO)CO4)C3)nc(C)n2)c1 |
| < 10 | COc1cc(CNC(=O)c2cc(C3=NOC(c4ccc(-c5cnco5)cn4)C3)nc(C)n2)ccc1F (centres unmarked) |
| < 10 | COc1cc(CNC(=O)c2cc(C3=NOC(c4ccc(-c5cnco5)nc4)C3)nc(C)n2)ccc1F (centres unmarked) |
| 10 to 100 | Cc1nc(C(=O)NCc2ccc(F)c(C)c2)cc(C2=NOC(c3ccccn3)C2)n1 (centres unmarked) |
| 10 to 100 | COc1cc(CNC(=O)c2cc(C3=NO[C@H]([C@@H]4CO[C@@H](C(=O)O)CO4)C3)nc(C)n2)ccc1F |
| 10 to 100 | Cc1nc(C(=O)NCc2ccc(F)c(Cl)c2)cc(C2=NOC(c3ccc(C#N)nn3)C2)n1 (centres unmarked) |
| 10 to 100 | CC(=O)N[C@H]1CC[C@H](C2CC(c3cc(C(=O)NCc4ccc(F)cc4)nc(C)n3)=NO2)CC1 (some centres unmarked) |
| 10 to 100 | COc1cc(CNC(=O)c2cc(C3=NOC(CC4CCN(S(C)(=O)=O)CC4)C3)nc(C)n2)ccc1F (centres unmarked) |
| > 1000 | COc1cc(CNC(=O)c2cc(C3=NOC(C(N)=O)C3)nc(C)n2)ccc1F (centres unmarked) |

| IC50 [nM] | Compound |
| --- | --- |
| 100 to 1000 | COc1ccc(CNC(=O)c2cc(C3=NOC(c4ccc(N(C)C)cc4)C3)nc(C)n2)cc1 (centres unmarked) |
| < 10 | CC(=O)NC[C@@H]1CO[C@@H]([C@@H]2CC(c3cc(C(=O)NCc4ccc(F)c(Cl)c4)nc(C)n3)=NO2)CO1 |
| 10 to 100 | CC(=O)N[C@H]1CC[C@H]([C@H]2CC(c3cc(C(=O)NCc4ccc(F)c(C)c4)nc(C)n3)=NO2)CC1 |
| 10 to 100 | COc1cc(CNC(=O)c2cc(C3=NOC(c4ccn(C5CC5)c(=O)c4)C3)nc(C)n2)ccc1F (centres unmarked) |
| < 10 | COc1cc(CNC(=O)c2cc(C3=NO[C@H](C4CCN(C(=O)CO)CC4)C3)nc(C)n2)ccc1F |
| < 10 | COc1cc(CNC(=O)c2cc(C3=NOC([C@H]4CC[C@H](CNC(=O)CC#N)CC4)C3)nc(C)n2)ccc1F (some centres unmarked) |
| 10 to 100 | COc1cc(CNC(=O)c2cc(C3=NOC(c4cn[nH]c4)C3)nc(C)n2)ccc1F (centres unmarked) |
| 10 to 100 | COc1cccc(CNC(=O)c2cc(C3=NO[C@H]([C@H]4CO[C@H](CO)CO4)C3)nc(C)n2)c1 |
| 10 to 100 | CCNC(=O)N1CCC(C2CC(c3cc(C(=O)NCc4ccc(F)c(OC)c4)nc(C)n3)=NO2)CC1 (centres unmarked) [drawing 877] |
| < 10 | COc1cc(CNC(=O)c2cc(C3=NO[C@H]([C@H]4CO[C@H](CNS(C)(=O)=O)CO4)C3)nc(C)n2)ccc1F |
| 10 to 100 | COc1cc(CNC(=O)c2cc(C3=NOC(c4ccc(=O)n(C5CC5)n4)C3)nc(C)n2)ccc1F (centres unmarked) |
| < 10 | COc1cc(CNC(=O)c2cc(C3=NO[C@@H](c4ccc(CO)cc4)C3)nc(C)n2)ccc1F |
| < 10 | Cc1nc(C(=O)NCc2ccc(F)c(Cl)c2)cc(C2=NO[C@H]([C@H]3CO[C@H](CO)CO3)C2)n1 [drawing 901] |
| 10 to 100 | COc1cc(CNC(=O)c2cc(C3=NOC(c4cncnc4)C3)nc(C)n2)ccc1F (centres unmarked) |
| 10 to 100 | CNC(=O)NC[C@@H]1CO[C@@H]([C@@H]2CC(c3cc(C(=O)NCc4ccc(F)c(OC)c4)nc(C)n3)=NO2)CO1 |
| < 10 | Cc1nc(C(=O)NCc2ccc(F)c(C)c2)cc(C2=NOC(c3ccc(=O)n(C)c3)C2)n1 (centres unmarked) [drawing 1015] |
| 10 to 100 | COc1cc(CNC(=O)c2cc(C3=NOC(C4CCN(C(=O)Nc5ccon5)CC4)C3)nc(C)n2)ccc1F (centres unmarked) |
| < 10 | COc1cc(CNC(=O)c2cc(C3=NOC(c4ccsc4)C3)nc(C)n2)ccc1F (centres unmarked) |
| 100 to 1000 | COc1ccc(CNC(=O)c2cc(C3=NOC(c4ccc(OC)cc4)C3)ccn2)cc1 (centres unmarked) |
| < 10 | COc1cc(CNC(=O)c2cc(C3=NOC([C@H]4CC[C@H](NC(=O)CC#N)CC4)C3)nc(C)n2)ccc1F (some centres unmarked) |
| 10 to 100 | CC(=O)N[C@H]1CC[C@H](C2CC(c3cc(C(=O)NCc4ccncc4)nc(C)n3)=NO2)CC1 (some centres unmarked) |
| 100 to 1000 | Cc1nc(C(=O)NCc2ccc3c(c2)NC(=O)CC3)cc(C2=NO[C@@H]([C@H]3CO[C@H](CO)CO3)C2)n1 |
| < 10 | COc1cc(CNC(=O)c2cc(C3=NOC([C@H]4CC[C@H](NC(=O)N(C)CCO)CC4)C3)nc(C)n2)ccc1F (some centres unmarked) |
| 10 to 100 | COc1cc(CNC(=O)c2cc(C3=NOC(C4CCN(C(=O)CO)CC4)C3)nc(C)n2)ccc1F (centres unmarked) |
| 100 to 1000 | Cc1nc(C(=O)NCc2ccnc3ccccc23)cc(C2=NO[C@@H]([C@H]3CO[C@H](CO)CO3)C2)n1 |
